Test results published in PubChem BioAssay (NCI).
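Each compound was tested at five concentrations against cells in 96-well plates for 48 hours. TGI marks complete inhibition of growth.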

Columns and labels:
Test in all cases: NCI anticancer screen, dose series, 48 h
786-0 renal = tested on: 786-0 renal
A549 NSCLC = tested on: A549 NSCLC
ACHN renal = tested on: ACHN renal
CAKI-1 renal = tested on: CAKI-1 renal
COLO 205 colon = tested on: COLO 205 colon
DLD-1 colon = tested on: DLD-1 colon
DMS 273 small cell lung = tested on: DMS 273 small cell lung
EKVX NSCLC = tested on: EKVX NSCLC
HCC-2998 colon = tested on: HCC-2998 colon
HCT-15 colon = tested on: HCT-15 colon
HOP-62 NSCLC = tested on: HOP-62 NSCLC
HOP-92 NSCLC = tested on: HOP-92 NSCLC
HT29 colon = tested on: HT29 colon
IGROV1 ovarian = tested on: IGROV1 ovarian
KM12 colon = tested on: KM12 colon
KM20L2 colon = tested on: KM20L2 colon
LOX IMVI melanoma = tested on: LOX IMVI melanoma
LXFL 529 NSCLC = tested on: LXFL 529 NSCLC
M14 melanoma = tested on: M14 melanoma
M19-MEL melanoma = tested on: M19-MEL melanoma
NCI-H23 lung = tested on: NCI-H23 lung
NCI-H460 lung = tested on: NCI-H460 lung
NCI-H522 lung = tested on: NCI-H522 lung
OVCAR-3 ovarian = tested on: OVCAR-3 ovarian
OVCAR-4 ovarian = tested on: OVCAR-4 ovarian
OVCAR-8 ovarian = tested on: OVCAR-8 ovarian
SF-268 CNS = tested on: SF-268 CNS
SF-295 CNS = tested on: SF-295 CNS
SK-MEL-2 melanoma = tested on: SK-MEL-2 melanoma
SK-MEL-28 melanoma = tested on: SK-MEL-28 melanoma
SK-MEL-5 melanoma = tested on: SK-MEL-5 melanoma
SK-OV-3 ovarian = tested on: SK-OV-3 ovarian
SN12C renal = tested on: SN12C renal
SNB-19 CNS = tested on: SNB-19 CNS
SW-620 colon = tested on: SW-620 colon
TK-10 renal = tested on: TK-10 renal
U251 CNS = tested on: U251 CNS
UACC-257 melanoma = tested on: UACC-257 melanoma
UACC-62 melanoma = tested on: UACC-62 melanoma
UO-31 renal = tested on: UO-31 renal
A498 renal = tested on: A498 renal
BT-549 breast = tested on: BT-549 breast
CCRF-CEM leukemia = tested on: CCRF-CEM leukemia
DU-145 prostate = tested on: DU-145 prostate
HCT-116 colon = tested on: HCT-116 colon
HL-60(TB) leukemia = tested on: HL-60(TB) leukemia
HS 578T breast = tested on: HS 578T breast
K-562 leukemia = tested on: K-562 leukemia
MALME-3M melanoma = tested on: MALME-3M melanoma
MCF7 breast = tested on: MCF7 breast
MDA-MB-231 breast = tested on: MDA-MB-231 breast
MDA-MB-435 = tested on: MDA-MB-435
MDA-N = tested on: MDA-N
MOLT-4 leukemia = tested on: MOLT-4 leukemia
NCI-H226 lung = tested on: NCI-H226 lung
NCI/ADR-RES ovarian = tested on: NCI/ADR-RES ovarian
OVCAR-5 ovarian = tested on: OVCAR-5 ovarian
PC-3 prostate = tested on: PC-3 prostate
RPMI-8226 leukemia = tested on: RPMI-8226 leukemia
RXF 393 renal = tested on: RXF 393 renal
SF-539 CNS = tested on: SF-539 CNS
SNB-75 CNS = tested on: SNB-75 CNS
SR leukemia = tested on: SR leukemia
T-47D breast = tested on: T-47D breast

Measured: TGI

Cc1ccc(C(N)=O)cc1N=NN(C)C
not listed: A498 renal | BT-549 breast | CCRF-CEM leukemia | DU-145 prostate | HCT-116 colon | HL-60(TB) leukemia | HS 578T breast | K-562 leukemia | MALME-3M melanoma | MCF7 breast | MDA-MB-231 breast | MDA-MB-435 | MDA-N | MOLT-4 leukemia | NCI-H226 lung | NCI/ADR-RES ovarian | OVCAR-5 ovarian | PC-3 prostate | RPMI-8226 leukemia | RXF 393 renal | SF-539 CNS | SNB-75 CNS | SR leukemia | T-47D breast
> 100 µM: all other assays above

CC(C)CCCC(C)[C@H]1CCC2[C@@H]3CCC4Cc5nc6c(nc5C[C@]4(C)C3CC[C@@]21C)CC1CC[C@@H]2C(CC[C@@]3(C)C2CC[C@@H]3C(C)CCCC(C)C)[C@@]1(C)C6 (stereo partly specified)
not listed: CAKI-1 renal | DLD-1 colon | DMS 273 small cell lung | HCC-2998 colon | KM20L2 colon | LXFL 529 NSCLC | M19-MEL melanoma | NCI-H522 lung
> 100 µM: all other assays above
